Consider 8 compounds from patent US9340590B2 (priority 2011, dated 2016).

Positions of bridges follow the written chain, without caps; N, C: chain ends. Non-standard residues stand in square brackets, D forms with d. Residues, ends and D or L forms follow the SMILES beside them. Trp(1-Me) = Cn1cc(C[C@H](N)C(=O)O)c2ccccc21; Cit = NC(=O)NCCC[C@H](N)C(=O)O; Dab = NCC[C@H](N)C(=O)O Where only a bound is given, the exact number is not on record here.

Experiment [1] deals with hNav1.7 (Homo sapiens, UniProt Q15858). As to the kind of experiment: cell-based. The following applies: Nav1.7 Use IC50.
Experiment [2] has as its target hNav1.5 (Homo sapiens, UniProt Q14524). Put plainly: cell-based.

hNav1.5, sequence (Q14524 whole entry, looked up): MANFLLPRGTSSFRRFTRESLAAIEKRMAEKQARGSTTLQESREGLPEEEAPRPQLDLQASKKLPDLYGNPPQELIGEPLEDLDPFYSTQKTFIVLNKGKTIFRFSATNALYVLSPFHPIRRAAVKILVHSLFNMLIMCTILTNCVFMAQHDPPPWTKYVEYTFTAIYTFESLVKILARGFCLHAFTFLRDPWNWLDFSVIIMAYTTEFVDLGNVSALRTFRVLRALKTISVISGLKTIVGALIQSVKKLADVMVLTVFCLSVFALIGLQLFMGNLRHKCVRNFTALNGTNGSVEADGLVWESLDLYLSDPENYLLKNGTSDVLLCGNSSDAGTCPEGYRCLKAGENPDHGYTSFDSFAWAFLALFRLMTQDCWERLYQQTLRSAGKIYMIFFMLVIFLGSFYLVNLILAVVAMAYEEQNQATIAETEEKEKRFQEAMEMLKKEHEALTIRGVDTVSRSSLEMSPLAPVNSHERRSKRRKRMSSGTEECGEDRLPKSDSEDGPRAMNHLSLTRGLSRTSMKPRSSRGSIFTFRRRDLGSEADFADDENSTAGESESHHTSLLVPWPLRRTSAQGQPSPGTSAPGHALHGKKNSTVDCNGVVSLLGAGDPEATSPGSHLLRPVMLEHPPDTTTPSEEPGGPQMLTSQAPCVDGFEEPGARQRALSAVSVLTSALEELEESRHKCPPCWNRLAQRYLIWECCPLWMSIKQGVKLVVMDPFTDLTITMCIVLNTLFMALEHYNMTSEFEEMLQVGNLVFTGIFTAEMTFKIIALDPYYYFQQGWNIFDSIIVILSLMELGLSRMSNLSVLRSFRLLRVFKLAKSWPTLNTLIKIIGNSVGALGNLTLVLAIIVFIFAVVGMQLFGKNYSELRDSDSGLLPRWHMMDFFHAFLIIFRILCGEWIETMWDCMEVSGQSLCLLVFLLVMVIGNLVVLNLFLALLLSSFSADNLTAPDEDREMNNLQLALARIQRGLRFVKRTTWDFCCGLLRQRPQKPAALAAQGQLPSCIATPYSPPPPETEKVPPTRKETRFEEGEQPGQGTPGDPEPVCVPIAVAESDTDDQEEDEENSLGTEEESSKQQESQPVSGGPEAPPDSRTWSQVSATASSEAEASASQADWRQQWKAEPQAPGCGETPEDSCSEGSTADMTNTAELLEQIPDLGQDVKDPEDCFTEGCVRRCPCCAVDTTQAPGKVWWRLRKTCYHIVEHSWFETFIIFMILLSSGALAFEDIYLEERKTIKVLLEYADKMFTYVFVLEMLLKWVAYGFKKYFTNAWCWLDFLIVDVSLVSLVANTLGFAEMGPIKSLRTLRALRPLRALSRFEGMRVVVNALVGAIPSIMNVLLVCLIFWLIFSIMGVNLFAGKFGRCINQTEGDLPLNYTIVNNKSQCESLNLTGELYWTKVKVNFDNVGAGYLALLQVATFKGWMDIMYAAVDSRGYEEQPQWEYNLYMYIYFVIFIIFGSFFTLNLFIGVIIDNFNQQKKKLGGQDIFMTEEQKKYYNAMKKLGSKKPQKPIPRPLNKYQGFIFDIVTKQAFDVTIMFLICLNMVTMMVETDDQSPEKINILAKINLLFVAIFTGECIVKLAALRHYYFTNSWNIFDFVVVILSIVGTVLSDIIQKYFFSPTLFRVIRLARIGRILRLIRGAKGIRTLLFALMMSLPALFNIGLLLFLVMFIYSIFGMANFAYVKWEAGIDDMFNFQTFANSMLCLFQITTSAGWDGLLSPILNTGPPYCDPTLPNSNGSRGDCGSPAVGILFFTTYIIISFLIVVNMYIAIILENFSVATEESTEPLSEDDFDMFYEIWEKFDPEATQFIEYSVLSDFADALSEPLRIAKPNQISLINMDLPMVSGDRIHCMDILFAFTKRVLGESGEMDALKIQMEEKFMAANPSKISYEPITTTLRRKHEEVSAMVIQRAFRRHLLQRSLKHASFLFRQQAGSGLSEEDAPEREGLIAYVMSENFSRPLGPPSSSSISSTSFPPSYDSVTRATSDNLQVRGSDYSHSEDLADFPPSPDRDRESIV
hNav1.7, sequence (Q15858 whole entry, looked up): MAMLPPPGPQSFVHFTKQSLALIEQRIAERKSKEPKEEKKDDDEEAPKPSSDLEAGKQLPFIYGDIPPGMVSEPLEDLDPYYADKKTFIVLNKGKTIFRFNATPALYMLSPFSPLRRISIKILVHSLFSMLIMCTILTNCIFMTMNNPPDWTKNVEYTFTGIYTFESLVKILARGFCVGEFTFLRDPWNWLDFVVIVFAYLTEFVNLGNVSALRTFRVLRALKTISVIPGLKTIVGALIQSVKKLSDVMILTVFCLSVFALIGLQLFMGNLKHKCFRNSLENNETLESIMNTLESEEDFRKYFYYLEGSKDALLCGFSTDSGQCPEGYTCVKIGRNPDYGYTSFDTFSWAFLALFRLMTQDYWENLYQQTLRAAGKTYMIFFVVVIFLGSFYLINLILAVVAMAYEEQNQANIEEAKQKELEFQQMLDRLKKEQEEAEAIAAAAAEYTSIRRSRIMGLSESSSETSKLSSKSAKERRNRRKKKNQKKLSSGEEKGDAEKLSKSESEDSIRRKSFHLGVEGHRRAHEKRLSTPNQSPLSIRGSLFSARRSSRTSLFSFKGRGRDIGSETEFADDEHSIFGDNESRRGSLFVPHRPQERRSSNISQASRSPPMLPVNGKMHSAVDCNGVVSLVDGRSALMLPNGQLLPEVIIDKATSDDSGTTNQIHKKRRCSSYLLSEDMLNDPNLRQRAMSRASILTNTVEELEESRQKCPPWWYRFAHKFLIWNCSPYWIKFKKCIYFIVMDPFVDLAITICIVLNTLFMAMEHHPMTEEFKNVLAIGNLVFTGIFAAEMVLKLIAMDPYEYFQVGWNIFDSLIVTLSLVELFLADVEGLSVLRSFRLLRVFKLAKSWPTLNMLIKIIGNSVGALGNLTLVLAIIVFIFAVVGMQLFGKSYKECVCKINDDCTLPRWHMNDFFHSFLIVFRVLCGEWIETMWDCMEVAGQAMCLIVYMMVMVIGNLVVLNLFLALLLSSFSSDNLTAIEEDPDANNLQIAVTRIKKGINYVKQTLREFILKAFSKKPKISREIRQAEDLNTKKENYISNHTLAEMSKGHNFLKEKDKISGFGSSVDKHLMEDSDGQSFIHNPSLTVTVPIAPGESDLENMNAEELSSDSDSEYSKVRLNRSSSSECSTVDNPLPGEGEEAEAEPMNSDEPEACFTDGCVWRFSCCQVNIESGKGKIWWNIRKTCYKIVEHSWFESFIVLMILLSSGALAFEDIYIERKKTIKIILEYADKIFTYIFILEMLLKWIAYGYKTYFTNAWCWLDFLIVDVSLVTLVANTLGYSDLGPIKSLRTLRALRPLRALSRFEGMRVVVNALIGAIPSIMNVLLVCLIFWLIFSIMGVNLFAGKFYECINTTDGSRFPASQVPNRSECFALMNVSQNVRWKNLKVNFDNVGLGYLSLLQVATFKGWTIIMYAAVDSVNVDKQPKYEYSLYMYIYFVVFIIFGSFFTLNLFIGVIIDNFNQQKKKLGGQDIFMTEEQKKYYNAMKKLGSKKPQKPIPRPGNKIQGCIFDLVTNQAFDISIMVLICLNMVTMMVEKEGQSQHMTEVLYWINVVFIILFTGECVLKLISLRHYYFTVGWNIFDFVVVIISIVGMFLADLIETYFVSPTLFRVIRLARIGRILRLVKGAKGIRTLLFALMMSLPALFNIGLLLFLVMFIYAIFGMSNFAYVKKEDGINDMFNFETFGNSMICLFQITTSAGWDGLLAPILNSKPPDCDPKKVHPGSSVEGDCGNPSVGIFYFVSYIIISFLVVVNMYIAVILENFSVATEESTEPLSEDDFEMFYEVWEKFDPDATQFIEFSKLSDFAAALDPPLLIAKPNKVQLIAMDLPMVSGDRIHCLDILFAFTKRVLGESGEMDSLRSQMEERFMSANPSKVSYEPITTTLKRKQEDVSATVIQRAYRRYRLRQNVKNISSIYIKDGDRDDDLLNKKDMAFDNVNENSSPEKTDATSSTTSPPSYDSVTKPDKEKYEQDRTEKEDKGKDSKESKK

Turning to `CC[C@H](C)[C@@H]1NC(=O)[C@@H]2CSSC[C@@H]3NC(=O)[C@H](C(C)C)NC(=O)[C@H](CC(C)C)NC(=O)[C@H](CC(N)=O)NC(=O)[C@@H]4CCCN4C(=O)[C@H](CCCNC(=N)N)NC(=O)[C@H](CSSC[C@H](NC(=O)[C@@H](N)CC(=O)O)C(=O)N[C@@H](CC(C)C)C(=O)NCC(=O)NC(C)(C)C(=O)N[C@@H](CC(C)C)C(=O)N[C@@H](CCCNC(=N)N)C(=O)N[C@@H](CCCCN)C(=O)N2)NC(=O)[C@H](CSSC[C@@H](C(=O)N[C@@H](CCCCN)C(=O)N[C@@H](Cc2ccc(O)cc2)C(=O)N[C@H](C(=O)N[C@@H](Cc2ccccc2)C(N)=O)C(C)C)NC(=O)[C@H](Cc2c[nH]c4ccccc24)NC(=O)[C@H](CCCCN)NC(=O)[C@H](Cc2c[nH]cn2)NC(=O)[C@H]([C@@H](C)O)NC(=O)[C@H](CCCNC(=N)N)NC(=O)[C@H](CO)NC3=O)NC(=O)[C@H](CCCCN)NC(=O)[C@H](CC(=O)O)NC(=O)[C@H](CC(N)=O)NC(=O)[C@H](CC(=O)O)NC(=O)[C@@H]2CCCN2C1=O` [[Aib5;Leu6]GpTx-1(1-34)], the figures for the IC50 in experiment [1] and in experiment [2] were 20 nM and above 10 µM, respectively.

In the case of `CC[C@H](C)[C@@H]1NC(=O)[C@@H]2CSSC[C@@H]3NC(=O)[C@H](C(C)C)NC(=O)[C@H](CC(C)C)NC(=O)[C@H](CC(N)=O)NC(=O)[C@@H]4CCCN4C(=O)[C@H](CCCNC(=N)N)NC(=O)[C@H](CSSC[C@H](NC(=O)[C@@H](N)CC(=O)O)C(=O)N[C@@H](CC(C)C)C(=O)NCC(=O)N[C@@H](C)C(=O)N[C@@H](Cc4ccccc4)C(=O)N[C@@H](CCCNC(=N)N)C(=O)N[C@@H](CCCCN)C(=O)N2)NC(=O)[C@H](CSSC[C@@H](C(=O)N[C@@H](CCCCN)C(=O)N[C@@H](Cc2ccc(O)cc2)C(=O)N[C@H](C(=O)N[C@@H](Cc2ccccc2)C(N)=O)C(C)C)NC(=O)[C@H](Cc2c[nH]c4ccccc24)NC(=O)[C@H](CCCCN)NC(=O)[C@H](Cc2c[nH]cn2)NC(=O)[C@H]([C@@H](C)O)NC(=O)[C@H](C)NC(=O)[C@H](CO)NC3=O)NC(=O)[C@H](CCCCN)NC(=O)[C@H](CC(=O)O)NC(=O)[C@H](CC(N)=O)NC(=O)[C@H](CC(=O)O)NC(=O)[C@@H]2CCCN2C1=O` [[Ala5,25;Phe6]GpTx-1(1-34)] (H-DCLGAFRKCIPDNDKCCRPNLVCSATHKWCKYVF-NH2; disulfide 2-17, 9-23, 16-30), the results for the IC50 in experiment [1] and in experiment [2] were 86 nM and above 10 µM, respectively.

On to `CC[C@H](C)[C@@H]1NC(=O)[C@@H]2CSSC[C@@H]3NC(=O)[C@H](C(C)C)NC(=O)[C@H](CC(C)C)NC(=O)[C@H](CC(N)=O)NC(=O)[C@@H]4CCCN4C(=O)[C@H](CCCNC(=N)N)NC(=O)[C@H](CSSC[C@H](NC(=O)[C@@H](N)CC(=O)O)C(=O)N[C@@H](CC(C)C)C(=O)NCC(=O)N[C@@H](C)C(=O)N[C@@H](Cc4cn(C)c5ccccc45)C(=O)N[C@@H](CCCNC(=N)N)C(=O)N[C@@H](CCCCN)C(=O)N2)NC(=O)[C@H](CSSC[C@@H](C(=O)N[C@@H](CCCCN)C(=O)N[C@@H](Cc2ccc(O)cc2)C(=O)N[C@H](C(=O)N[C@@H](Cc2ccccc2)C(N)=O)C(C)C)NC(=O)[C@H](Cc2c[nH]c4ccccc24)NC(=O)[C@H](CCCCN)NC(=O)[C@H](Cc2c[nH]cn2)NC(=O)[C@H]([C@@H](C)O)NC(=O)[C@H](CCCNC(=N)N)NC(=O)[C@H](CO)NC3=O)NC(=O)[C@H](CCCCN)NC(=O)[C@H](CC(=O)O)NC(=O)[C@H](CC(N)=O)NC(=O)[C@H](CC(=O)O)NC(=O)[C@@H]2CCCN2C1=O` [[Ala5;1′NMeW6]GpTx-1(1-34)], for which the results for the IC50 in experiment [1] and in experiment [2] were 51 nM and above 10 µM, respectively.

Turning to `CC[C@H](C)[C@@H]1NC(=O)[C@@H]2CSSC[C@@H]3NC(=O)[C@H](C(C)C)NC(=O)[C@H](CC(C)C)NC(=O)[C@H](CC(N)=O)NC(=O)[C@@H]4CCCN4C(=O)[C@H](CCCNC(=N)N)NC(=O)[C@H](CSSC[C@H](NC(=O)[C@@H](N)CC(=O)O)C(=O)N[C@@H](CC(C)C)C(=O)NCC(=O)N[C@@H](C)C(=O)N[C@@H](CCSC)C(=O)N[C@@H](CCCNC(=N)N)C(=O)N[C@@H](CCCCN)C(=O)N2)NC(=O)[C@H](CSSC[C@@H](C(=O)N[C@@H](CCCCN)C(=O)N[C@@H](Cc2cn(C)c4ccccc24)C(=O)N[C@H](C(=O)N[C@@H](Cc2ccccc2)C(N)=O)C(C)C)NC(=O)[C@H](Cc2c[nH]c4ccccc24)NC(=O)[C@H](CCCCN)NC(=O)[C@H](Cc2c[nH]cn2)NC(=O)[C@H]([C@@H](C)O)NC(=O)[C@H](CCCNC(=N)N)NC(=O)[C@H](CO)NC3=O)NC(=O)[C@H](CCCCN)NC(=O)[C@H](CC(=O)O)NC(=O)[C@H](CC(N)=O)NC(=O)[C@H](CC(=O)O)NC(=O)[C@@H]2CCCN2C1=O` [[Ala5;1′NMeW32]GpTx-1(1-34)] (H-DCLGAMRKCIPDNDKCCRPNLVCSRTHKWCK[Trp(1-Me)]VF-NH2; disulfide 2-17, 9-23, 16-30), the IC50 (in general, the concentration that inhibits the measured activity by half) in experiment [1] is 18 nM; in experiment [2] it was above 10 µM.

In the case of `CSCC[C@@H]1NC(=O)[C@H](C)NC(=O)CNC(=O)[C@H](CC(C)C)NC(=O)[C@@H](NC(=O)[C@@H](N)CC(=O)O)CSSC[C@@H]2NC(=O)[C@@H]3CSSC[C@@H](C(=O)N[C@@H](CCCCN)C(=O)N[C@@H](Cc4ccc(O)cc4)C(=O)N[C@H](C(=O)N[C@@H](Cc4ccccc4)C(N)=O)C(C)C)NC(=O)[C@H](Cc4c[nH]c5ccccc45)NC(=O)[C@H](CCCCN)NC(=O)[C@H](Cc4c[nH]cn4)NC(=O)[C@H]([C@@H](C)O)NC(=O)[C@H](CCCNC(=N)N)NC(=O)[C@H](CO)NC(=O)[C@H](CSSC[C@H](NC(=O)[C@H](CCCCN)NC(=O)[C@H](CCCNC(=N)N)NC1=O)C(=O)N[C@@H](CC(=O)O)C(=O)N1CCC[C@H]1C(=O)N[C@@H](CCC(=O)O)C(=O)N[C@@H](CC(N)=O)C(=O)N[C@@H](CC(=O)O)C(=O)N[C@@H](CCCCN)C(=O)N3)NC(=O)[C@H](C(C)C)NC(=O)[C@H](CC(C)C)NC(=O)[C@H](CC(N)=O)NC(=O)[C@@H]1CCCN1C(=O)[C@H](CCCNC(=N)N)NC2=O` [[Ala5;Asp10;Glu12]GpTx-1(1-34)] (H-DCLGAMRKCDPENDKCCRPNLVCSRTHKWCKYVF-NH2; disulfide 2-17, 9-23, 16-30), the IC50 in experiment [1] is 554 nM; in experiment [2] it was above 10 µM.

`CSCC[C@@H]1NC(=O)[C@H](C)NC(=O)CNC(=O)[C@H](CC(C)C)NC(=O)[C@@H](NC(=O)[C@@H](N)CC(=O)O)CSSC[C@@H]2NC(=O)[C@@H]3CSSC[C@@H](C(=O)N[C@@H](CCCCN)C(=O)N[C@@H](Cc4ccc(O)cc4)C(=O)N[C@H](C(=O)N[C@@H](Cc4ccccc4)C(N)=O)C(C)C)NC(=O)[C@H](Cc4c[nH]c5ccccc45)NC(=O)[C@H](CCCCN)NC(=O)[C@H](Cc4c[nH]cn4)NC(=O)[C@H]([C@@H](C)O)NC(=O)[C@H](CCCNC(=N)N)NC(=O)[C@H](CO)NC(=O)[C@H](CSSC[C@H](NC(=O)[C@H](CCCCN)NC(=O)[C@H](CCCNC(=N)N)NC1=O)C(=O)N[C@@H](CC(=O)O)C(=O)N1CCC[C@H]1C(=O)N[C@@H](CC(=O)O)C(=O)N[C@@H](CC(N)=O)C(=O)N[C@@H](CC(=O)O)C(=O)N[C@@H](CCCCN)C(=O)N3)NC(=O)[C@H](C(C)C)NC(=O)[C@H](CC(C)C)NC(=O)[C@H](CC(N)=O)NC(=O)[C@@H]1CCCN1C(=O)[C@H](CCCNC(=N)N)NC2=O` [[Ala5;Asp10]GpTx-1(1-34)] (H-DCLGAMRKCDPDNDKCCRPNLVCSRTHKWCKYVF-NH2; disulfide 2-17, 9-23, 16-30): the IC50 in experiment [1] was 50 nM; in experiment [2], above 10 µM.

With `CC[C@H](C)[C@@H]1NC(=O)[C@@H]2CSSC[C@@H]3NC(=O)[C@H](C(C)C)NC(=O)[C@H](CC(C)C)NC(=O)[C@H](CC(N)=O)NC(=O)[C@@H]4CCCN4C(=O)[C@H](CCCNC(=N)N)NC(=O)[C@H](CSSC[C@H](NC(=O)[C@@H](N)CC(=O)O)C(=O)N[C@@H](CC(C)C)C(=O)NCC(=O)N[C@@H](C)C(=O)N[C@@H](CCSC)C(=O)N[C@@H](CCCNC(=N)N)C(=O)N[C@@H](CCCCN)C(=O)N2)NC(=O)[C@H](CSSC[C@@H](C(=O)N[C@@H](CCCCN)C(=O)N[C@@H](Cc2ccc(O)cc2)C(=O)N[C@H](C(=O)N[C@@H](Cc2ccccc2)C(N)=O)C(C)C)NC(=O)[C@H](Cc2c[nH]c4ccccc24)NC(=O)[C@H](CCCNC(N)=O)NC(=O)[C@H](Cc2c[nH]cn2)NC(=O)[C@H]([C@@H](C)O)NC(=O)[C@H](CCCNC(=N)N)NC(=O)[C@H](CO)NC3=O)NC(=O)[C@H](CCCCN)NC(=O)[C@H](CC(=O)O)NC(=O)[C@H](CC(N)=O)NC(=O)[C@H](CC(=O)O)NC(=O)[C@@H]2CCCN2C1=O` [[Ala5;Cit28]GpTx-1(1-34)] (H-DCLGAMRKCIPDNDKCCRPNLVCSRTH[Cit]WCKYVF-NH2; disulfide 2-17, 9-23, 16-30), the IC50 in experiment [1] was 30 nM; in experiment [2], above 10 µM.

Consider `CC[C@H](C)[C@@H]1NC(=O)[C@@H]2CSSC[C@@H]3NC(=O)[C@H](C(C)C)NC(=O)[C@H](CC(C)C)NC(=O)[C@H](CC(N)=O)NC(=O)[C@@H]4CCCN4C(=O)[C@H](CCCNC(=N)N)NC(=O)[C@H](CSSC[C@H](NC(=O)[C@@H](N)CC(=O)O)C(=O)N[C@@H](CC(C)C)C(=O)NCC(=O)N[C@@H](C)C(=O)N[C@@H](CCSC)C(=O)N[C@@H](CCCNC(=N)N)C(=O)N[C@@H](CCCCN)C(=O)N2)NC(=O)[C@H](CSSC[C@@H](C(=O)N[C@@H](CCCCN)C(=O)N[C@@H](Cc2ccc(O)cc2)C(=O)N[C@H](C(=O)N[C@@H](Cc2ccccc2)C(N)=O)C(C)C)NC(=O)[C@H](Cc2c[nH]c4ccccc24)NC(=O)[C@H](CCN)NC(=O)[C@H](Cc2c[nH]cn2)NC(=O)[C@H]([C@@H](C)O)NC(=O)[C@H](CCCNC(=N)N)NC(=O)[C@H](CO)NC3=O)NC(=O)[C@H](CCCCN)NC(=O)[C@H](CC(=O)O)NC(=O)[C@H](CC(N)=O)NC(=O)[C@H](CC(=O)O)NC(=O)[C@@H]2CCCN2C1=O` [[Ala5;Dab28]GpTx-1(1-34)] (H-DCLGAMRKCIPDNDKCCRPNLVCSRTH[Dab]WCKYVF-NH2; disulfide 2-17, 9-23, 16-30), for which the figures for the IC50 in experiment [1] and in experiment [2] were 13 nM and above 10 µM, respectively.
